pIC50: −log10 of the molar value.
Target: T1, Dihydrofolate reductase (Homo sapiens, UniProt P00374)
T1 sequence (P00374 whole entry): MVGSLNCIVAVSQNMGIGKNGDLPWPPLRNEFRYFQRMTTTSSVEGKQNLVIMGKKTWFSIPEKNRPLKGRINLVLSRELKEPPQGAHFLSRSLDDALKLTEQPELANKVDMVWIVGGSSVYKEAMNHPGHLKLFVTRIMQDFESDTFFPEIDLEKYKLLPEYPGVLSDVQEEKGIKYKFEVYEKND
Assay: ChEBML_54117
Excerpt: Inhibitory activity towards dihydrofolate reductase derived from human manca leukemia cells

CCC(Cc1ccc(C(=O)NC(CCC(=O)O)C(=O)O)cc1)c1cnc2nc(N)nc(N)c2n1 (stereo unspecified)
pIC50: 7.15
